Experiments:
Test in all cases: relative viability (nuclei count vs DMSO), 5 days (fraction); higher = more cells survive
201T = test system: 201T
Summary of the method: (§1)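 Nuclei were stained with Hoechst during a one-step fixation (final 0.05% Triton X-100, 1% formaldehyde, 1 ug/ml Hoechst) carried out 5 days after dosing, then counted on 4× images. The cells, lung cancer lines in 1536-well plates, had been dosed by pin tool the day after seeding with one drug alone or a fixed anchor-drug dose plus five library-drug doses (not always all listed) in √10 steps. Relative viability is the nuclei count in treated wells divided by that in vehicle wells, and each value is the median of duplicate plates.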

BEN = test system: BEN
Summary of the method: as §1

EMC-BAC-2 = test system: EMC-BAC-2
Summary of the method: as §1

HARA = test system: HARA
Summary of the method: as §1

LCLC-103H = test system: LCLC-103H
Summary of the method: as §1

LOU-NH91 = test system: LOU-NH91
Summary of the method: as §1

NCI-H1395 = test system: NCI-H1395
Summary of the method: as §1

NCI-H1666 = test system: NCI-H1666
Summary of the method: as §1

NCI-H1993 = test system: NCI-H1993
Summary of the method: as §1

NCI-H2009 = test system: NCI-H2009
Summary of the method: as §1

NCI-H2023 = test system: NCI-H2023
Summary of the method: as §1

NCI-H2087 = test system: NCI-H2087
Summary of the method: as §1

NCI-H2126 = test system: NCI-H2126
Summary of the method: as §1

NCI-H2347 = test system: NCI-H2347
Summary of the method: as §1

NCI-H23 = test system: NCI-H23
Summary of the method: as §1

NCI-H3122 = test system: NCI-H3122
Summary of the method: as §1

NCI-H441 = test system: NCI-H441
Summary of the method: as §1

NCI-H596 = test system: NCI-H596
Summary of the method: as §1

NCI-H647 = test system: NCI-H647
Summary of the method: as §1

NCI-H650 = test system: NCI-H650
Summary of the method: as §1

NCI-H727 = test system: NCI-H727
Summary of the method: as §1

NCI-H838 = test system: NCI-H838
Summary of the method: as §1

## Oc1nc(-c2ccc(C(F)(F)F)cc2)nc2c1CSCC2 [XAV939] + COc1cc2c(Oc3ccc(NC(=O)C4(C(=O)Nc5ccc(F)cc5)CC4)cc3F)ccnc2cc1OCCCN1CCOCC1 [Foretinib] (partner 0.25 µM)
201T; first compound 0.08 µM
  relative viability: 0.88
201T; first compound 0.253 µM
  relative viability: 0.705
201T; first compound 0.8 µM
  relative viability: 0.861
201T; first compound 2.53 µM
  relative viability: 0.746
BEN; first compound 0.08 µM
  relative viability: 0.71
BEN; first compound 0.253 µM
  relative viability: 0.631
BEN; first compound 0.8 µM
  relative viability: 0.577
BEN; first compound 2.53 µM
  relative viability: 0.546
EMC-BAC-2; first compound 0.08 µM
  relative viability: 1.05
EMC-BAC-2; first compound 0.253 µM
  relative viability: 0.747
EMC-BAC-2; first compound 0.8 µM
  relative viability: 0.848
EMC-BAC-2; first compound 2.53 µM
  relative viability: 0.553
HARA; first compound 0.08 µM
  relative viability: 1.03
HARA; first compound 0.253 µM
  relative viability: 0.79
HARA; first compound 0.8 µM
  relative viability: 0.248
HARA; first compound 2.53 µM
  relative viability: 0.678
LCLC-103H; first compound 0.08 µM
  relative viability: 0.853
LCLC-103H; first compound 0.253 µM
  relative viability: 0.643
LCLC-103H; first compound 0.8 µM
  relative viability: 0.748
LCLC-103H; first compound 2.53 µM
  relative viability: 0.659
LOU-NH91; first compound 0.08 µM
  relative viability: 0.932
LOU-NH91; first compound 0.253 µM
  relative viability: 0.918
LOU-NH91; first compound 0.8 µM
  relative viability: 0.903
LOU-NH91; first compound 2.53 µM
  relative viability: 0.891
NCI-H1395; first compound 0.08 µM
  relative viability: 1.07
NCI-H1395; first compound 0.253 µM
  relative viability: 0.783
NCI-H1395; first compound 0.8 µM
  relative viability: 1
NCI-H1395; first compound 2.53 µM
  relative viability: 0.961
NCI-H1666; first compound 0.08 µM
  relative viability: 0.99
NCI-H1666; first compound 0.253 µM
  relative viability: 0.919
NCI-H1666; first compound 0.8 µM
  relative viability: 0.908
NCI-H1666; first compound 2.53 µM
  relative viability: 0.952
NCI-H1993; first compound 0.08 µM
  relative viability: 0.753
NCI-H1993; first compound 0.253 µM
  relative viability: 0.7
NCI-H1993; first compound 0.8 µM
  relative viability: 0.688
NCI-H1993; first compound 2.53 µM
  relative viability: 0.65
NCI-H2009; first compound 0.08 µM
  relative viability: 1.32
NCI-H2009; first compound 0.253 µM
  relative viability: 1.21
NCI-H2009; first compound 0.8 µM
  relative viability: 1.18
NCI-H2009; first compound 2.53 µM
  relative viability: 1.16
NCI-H2023; first compound 0.08 µM
  relative viability: 0.847
NCI-H2023; first compound 0.253 µM
  relative viability: 0.756
NCI-H2023; first compound 0.8 µM
  relative viability: 0.659
NCI-H2023; first compound 2.53 µM
  relative viability: 0.514
NCI-H2087; first compound 0.08 µM
  relative viability: 1.04
NCI-H2087; first compound 0.253 µM
  relative viability: 1.03
NCI-H2087; first compound 0.8 µM
  relative viability: 1.02
NCI-H2087; first compound 2.53 µM
  relative viability: 0.677
NCI-H2126; first compound 0.08 µM
  relative viability: 1.1
NCI-H2126; first compound 0.253 µM
  relative viability: 0.989
NCI-H2126; first compound 0.8 µM
  relative viability: 1.17
NCI-H2126; first compound 2.53 µM
  relative viability: 0.725
NCI-H2347; first compound 0.08 µM
  relative viability: 0.797
NCI-H2347; first compound 0.253 µM
  relative viability: 0.803
NCI-H2347; first compound 0.8 µM
  relative viability: 0.786
NCI-H2347; first compound 2.53 µM
  relative viability: 0.354
NCI-H23; first compound 0.08 µM
  relative viability: 1.08
NCI-H23; first compound 0.253 µM
  relative viability: 0.844
NCI-H23; first compound 0.8 µM
  relative viability: 0.868
NCI-H23; first compound 2.53 µM
  relative viability: 0.962
NCI-H3122; first compound 0.08 µM
  relative viability: 0.926
NCI-H3122; first compound 0.253 µM
  relative viability: 0.918
NCI-H3122; first compound 0.8 µM
  relative viability: 0.942
NCI-H3122; first compound 2.53 µM
  relative viability: 0.909
NCI-H441; first compound 0.08 µM
  relative viability: 1.15
NCI-H441; first compound 0.253 µM
  relative viability: 0.891
NCI-H441; first compound 0.8 µM
  relative viability: 1.19
NCI-H441; first compound 2.53 µM
  relative viability: 1.02
NCI-H596; first compound 0.08 µM
  relative viability: 0.814
NCI-H596; first compound 0.253 µM
  relative viability: 0.874
NCI-H596; first compound 0.8 µM
  relative viability: 0.84
NCI-H596; first compound 2.53 µM
  relative viability: 0.797
NCI-H647; first compound 0.08 µM
  relative viability: 1.21
NCI-H647; first compound 0.253 µM
  relative viability: 0.958
NCI-H647; first compound 0.8 µM
  relative viability: 0.991
NCI-H647; first compound 2.53 µM
  relative viability: 0.609
NCI-H650; first compound 0.08 µM
  relative viability: 1.16
NCI-H650; first compound 0.253 µM
  relative viability: 0.991
NCI-H650; first compound 0.8 µM
  relative viability: 1.09
NCI-H650; first compound 2.53 µM
  relative viability: 0.857
NCI-H727; first compound 0.08 µM
  relative viability: 0.997
NCI-H727; first compound 0.253 µM
  relative viability: 0.774
NCI-H727; first compound 0.8 µM
  relative viability: 0.821
NCI-H727; first compound 2.53 µM
  relative viability: 0.928
NCI-H838; first compound 0.08 µM
  relative viability: 1.01
NCI-H838; first compound 0.253 µM
  relative viability: 0.957
NCI-H838; first compound 0.8 µM
  relative viability: 0.931
NCI-H838; first compound 2.53 µM
  relative viability: 0.575

— the supplement of paper PMC10307832
